Like-named read-outs stand apart in the source and are kept apart here.
Legend:
Smn protein = Smn protein assay in cultured cells (SMN HTRF); assay type: cell-based, human; conditions: 48 hours; for EC1.5x (concentration giving 1.5-fold Smn protein increase): SMA Type 1 patient fibroblast cells (GM03813), 7-point concentration curve, SMN HTRF, concentration producing 1.5 times Smn protein vs DMSO vehicle control, read-out: EC1.5x for Smn protein expression; for maximum fold (Fold) increase of Smn protein: SMA patient fibroblast cells, 7-point concentration data, fold increase relative to vehicle control (SMN HTRF)
In short: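 Lysates in RIPA with protease inhibitors are incubated overnight at room temperature with HTRF anti-SMN antibodies. EC1.5x is derived from fold increase in ΔF over vehicle.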

[1] = test system: SMN2 minigene (full length SMN2 minigene mRNA containing SMN2 exon 7); experiment: SMN2 minigene mRNA splicing RT-qPCR assay in cultured cells; assay type: cell-based, human; conditions: Homo sapiens, HEK293-H, read-out: EC1.5x for production of full length SMN2 mRNA
In short: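 Read-out: full-length (exon 7-included) SMN2 minigene mRNA by multiplex RT-qPCR with GAPDH, efficiency-corrected (1+E)^−Ct, GAPDH-normalized and divided by vehicle. Stably transfected HEK293H cells, 24 h compound exposure, duplicates per concentration. Value is EC1.5x, reported as star ranges.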

[2] = HEK293H cells stably transfected with SMN2-A minigene, 24 hours, 7-point concentration curve, 1.5-fold relative to vehicle-treated cells

| SMILES | melting point | EC1.5x (concentration giving 1.5-fold Smn protein increase) (Smn protein) [nM] | maximum fold (Fold) increase of Smn protein (Smn protein) | EC (1.5-fold) [1, 2] [µM] | EC (1.5-fold) ([1]; 24 h) [µM] |
| --- | --- | --- | --- | --- | --- |
| CN(CCO)Cc1ccc2cc(-c3nc4c(Cl)cccc4s3)c(=O)oc2c1 [Compound 271, 3-(4-chloro-1,3-benzothiazol-2-yl)-7-{[(2-hydroxyethyl)(methyl)amino]methyl}-2H-chromen-2-one] | 193 to 196 °C | 3000 to 10000 | **** (fold increase between >1.5 and ≤1.65) | 1 to 3 | – |
| CN1CCN(c2ccc3cc(-c4cccc(OC5CCC5)n4)c(=O)oc3c2)CC1 [Compound 415, 3-[6-(cyclobutyloxy)pyridin-2-yl]-7-(4-methylpiperazin-1-yl)-2H-chromen-2-one] | 158 to 160 °C | – | * (maximum fold increase of ≤1.2) | 3 to 30 | – |
| Cc1cc(Cl)cn2cc(-c3cc4ccc(N5CCNCC5)cc4oc3=O)nc12 [Compound 263, 3-(6-chloro-8-methylimidazo[1,2-a]pyridin-2-yl)-7-(piperazin-1-yl)-2H-chromen-2-one] | 224 to 233 °C | – | * (maximum fold increase of ≤1.2) | 3 to 30 | – |
| C[C@@H]1CN(c2ccc3cc(-c4nc5c(Cl)cccc5o4)c(=O)oc3c2)C[C@H](C)N1 [Compound 69, 3-(4-chloro-1,3-benzoxazol-2-yl)-7-[(3R,5S)-3,5-dimethylpiperazin-1-yl]-2H-chromen-2-one] | 238 to 240 °C | – | * (maximum fold increase of ≤1.2) | 0.1 to 0.3 | – |
| COc1cccc(-c2cc3ccc(N4CCN(C)CC4)cc3oc2=O)n1 [Compound 257, 3-(6-methoxypyridin-2-yl)-7-(4-methylpiperazin-1-yl)-2H-chromen-2-one] | 162 to 164 °C | – | * (maximum fold increase of ≤1.2) | 1 to 3 | – |
| COc1c(F)cc(F)cc1-c1cc2ccc(N3C[C@@H](C)N[C@@H](C)C3)cc2oc1=O [Compound 540, 3-(3,5-difluoro-2-methoxyphenyl)-7-[(3R,5S)-3,5-dimethylpiperazin-1-yl]-2H-chromen-2-one] | 109 to 111 °C | – | * (maximum fold increase of ≤1.2) | 3 to 30 | – |
| C[C@@H]1CN(c2ccc3cc(C(=O)Nc4ccccc4)c(=O)oc3c2)C[C@H](C)N1 [Compound 30, 7-[(3R,5S)-3,5-dimethylpiperazin-1-yl]-2-oxo-N-phenyl-2H-chromene-3-carboxamide] | 231 to 233 °C | – | * (maximum fold increase of ≤1.2) | 1 to 3 | – |
| O=c1oc2cc(N3CCNCC3)ccc2cc1-c1cn2cccnc2n1 [Cpd 89, 3-(imidazo[1,2-a]pyrimidin-2-yl)-7-(piperazin-1-yl)-2H-chromen-2-one] | 286 °C (dec.) | 300 to 1000 | **** (fold increase between >1.5 and ≤1.65) | 0.1 to 0.3 | – |
| Cc1cc(Cl)c2nc(-c3cc4ccc(N5CCN(C)CC5)cc4oc3=O)cn2c1 [Compound 343, 3-(8-chloro-6-methylimidazo[1,2-a]pyridin-2-yl)-7-(4-methylpiperazin-1-yl)-2H-chromen-2-one] | 245 to 253 °C | – | * (maximum fold increase of ≤1.2) | 0.1 to 0.3 | – |
| CN1CCN(c2ccc3cc(-c4cn5cnccc5n4)c(=O)oc3c2)CC1 [Cpd 458, 3-(imidazo[1,2-c]pyrimidin-2-yl)-7-(4-methylpiperazin-1-yl)-2H-chromen-2-one] | 253 to 255 °C | – | *** (fold increase between >1.35 and ≤1.5) | 0.3 to 1 | – |
| O=c1oc2cc(CN3CCC(O)CC3)ccc2cc1-c1cn2ccsc2n1 [Compound 346, 7-[(4-hydroxypiperidin-1-yl)methyl]-3-(imidazo[2,1-b][1,3]thiazol-6-yl)-2H-chromen-2-one] | 248 to 252 °C | – | ** (fold increase between >1.2 and ≤1.35) | 3 to 30 | – |
| CN1CCN(c2ccc3cc(-c4nc(-c5ccccc5)cs4)c(=O)oc3c2)CC1 [Compound 45, 7-(4-methylpiperazin-1-yl)-3-(4-phenyl-1,3-thiazol-2-yl)-2H-chromen-2-one] | 205 to 210 °C | – | * (maximum fold increase of ≤1.2) | 3 to 30 | – |
| Cc1cccnc1Nc1cc2ccc(N3CCNCC3)cc2oc1=O [Compound 61, 3-[(3-methylpyridin-2-yl)amino]-7-(piperazin-1-yl)-2H-chromen-2-one] | 164 to 167 °C | – | ** (fold increase between >1.2 and ≤1.35) | 3 to 30 | – |
| Cc1cn2cc(-c3cc4ccc(C5CCN(C6CC6)CC5)cc4oc3=O)nc2c(C)n1 [Compound 854, 7-(1-cyclopropylpiperidin-4-yl)-3-(6,8-dimethylimidazo[1,2-a]pyrazin-2-yl)-2H-chromen-2-one] | 236 to 243 °C | < 300 | ***** (fold increase >1.65) | < 0.1 | – |
| Cc1cccc(Nc2cc3ccc(N4CCNCC4)cc3oc2=O)n1 [Compound 64, 3-[(6-methylpyridin-2-yl)amino]-7-(piperazin-1-yl)-2H-chromen-2-one] | 135 to 137 °C | – | * (maximum fold increase of ≤1.2) | 1 to 3 | – |
| Cc1cccc(-c2cc3ccc(N4CCNCC4)cc3oc2=O)c1 [Compound 511, 3-(3-methylphenyl)-7-(piperazin-1-yl)-2H-chromen-2-one] | 118 to 120 °C | – | * (maximum fold increase of ≤1.2) | – | 1 to 3 |
| Cc1ccc2oc(-c3cc4ccc(N5C[C@@H](C)N[C@@H](C)C5)cc4oc3=O)cc2n1 [Compound 720, 7-[(3R,5S)-3,5-dimethylpiperazin-1-yl]-3-(5-methylfuro[3,2-b]pyridin-2-yl)-2H-chromen-2-one] | 179 to 183 °C | – | ** (fold increase between >1.2 and ≤1.35) | 0.3 to 1 | – |
| Cc1cn2cc(-c3cc4ccc(N5CC[C@H]6CN(C)C[C@H]65)cc4oc3=O)nc2c(C)n1 [Compound 689, 3-(6,8-dimethylimidazo[1,2-a]pyrazin-2-yl)-7-[(3aS,6aS)-5-methylhexahydropyrrolo[3,4-b]pyrrol-1(2H)-yl]-2H-chromen-2-one] | 241 to 248 °C | – | *** (fold increase between >1.35 and ≤1.5) | 0.3 to 1 | – |
| C[C@@H]1CN(c2cc(F)c3cc(-c4cn5ccc(C(F)(F)F)cc5n4)c(=O)oc3c2)C[C@H](C)N1 [Cpd 391, 7-[(3R,5S)-3,5-dimethylpiperazin-1-yl]-5-fluoro-3-[7-(trifluoromethyl)imidazo[1,2-a]pyridin-2-yl]-2H-chromen-2-one] | 210 to 219 °C | – | ** (fold increase between >1.2 and ≤1.35) | 1 to 3 | – |
| CCN(CC)C1CCN(c2ccc3cc(-c4cc5c(C)nc(C)cn5c4)c(=O)oc3c2)C1 (stereo not shown) [Compound 735, 7-[3-(diethylamino)pyrrolidin-1-yl]-3-(1,3-dimethylpyrrolo[1,2-a]pyrazin-7-yl)-2H-chromen-2-one] | 165 to 168 °C | 300 to 1000 | **** (fold increase between >1.5 and ≤1.65) | < 0.1 | – |
| CN1CCN(c2ccc3cc(-c4cn5ccsc5n4)c(=O)oc3c2)CC1 [Cpd 117, 3-(imidazo[2,1-b][1,3]thiazol-6-yl)-7-(4-methylpiperazin-1-yl)-2H-chromen-2-one] | 256 to 258 °C | 300 to 1000 | **** (fold increase between >1.5 and ≤1.65) | 0.1 to 0.3 | – |
| C[C@H]1CN(c2ccc3cc(-c4ccc5c(c4)OCO5)c(=O)oc3c2)CCN1 [Compound 489, 3-(1,3-benzodioxol-5-yl)-7-[(3S)-3-methylpiperazin-1-yl]-2H-chromen-2-one] | 134 to 136 °C | – | * (maximum fold increase of ≤1.2) | 3 to 30 | – |
| CNCCCc1ccc2cc(-c3cn4cc(C)nc(C)c4n3)c(=O)oc2c1 [Compound 912, 3-(6,8-dimethylimidazo[1,2-a]pyrazin-2-yl)-7-[3-(methylamino)propyl]-2H-chromen-2-one] | 197 to 201 °C | < 300 | **** (fold increase between >1.5 and ≤1.65) | < 0.1 | – |
| CCc1cc(-c2cc3ccc(CCCN(C)C)cc3oc2=O)cn2cc(C)nc12 [Compound 910, 7-[3-(dimethylamino)propyl]-3-(8-ethyl-2-methylimidazo[1,2-a]pyridin-6-yl)-2H-chromen-2-one] | 123 to 126 °C | < 300 | ***** (fold increase >1.65) | < 0.1 | – |

Source: patent USRE47689E1, “Compounds for treating spinal muscular atrophy” (PTC Therapeutics, Inc., priority 2011, dated 2019)
